# A melting point compilation (Tetko et al.; mined from patent text by program, amines drawn as free bases though some values may be those of a salt)
row,Structure (SMILES),melting point [°C]
1,COc1ccc(-c2c3c(nn2-c2ccccc2)-c2cccc(N)c2C3=O)cc1,273
2,Nc1nc(-n2cc(C(=O)O)c(=O)c3cc(F)c(F)c(F)c32)c(F)cc1F,280
3,CCOC(=O)CCNc1nc2c(C)cc(C)cc2n1Cc1nc(C)ccc1O,180
4,CC(=O)Nc1ccc(S(=O)(=O)N2CCN(c3c(F)cc4c(=O)c(C(=O)O)cn(C5CC5)c4c3F)CC2)cc1,282 to 284
5,COCC[C@H]1CN(c2cc(C)cc3c2C=Nc2ccccc2N3)CCN1C,100 to 108
6,C#CCCCCCCCCCCOc1cccc(C(N)=O)c1,106 to 108
7,O=S1(=O)NC(c2ccccc2)Nc2c(Br)cc(Br)cc21 (stereo unspecified),186 to 189
8,FC(F)(F)c1cccc(C(NC2=NCCO2)C(F)(F)F)c1 (stereo unspecified),129 to 132
9,CCN(CC)c1nc(C(C)(C)C)nn1-c1c([N+](=O)[O-])cc(C(F)(F)F)cc1[N+](=O)[O-],64 to 65
10,CCOC(=O)C1(C)Cc2cc(Cl)cc([N+](=O)[O-])c2O1 (stereo unspecified),69 to 72.5
11,Cc1c(F)c(N2CCC(n3ccnn3)C2)c(F)c2c1c(=O)c(C(=O)O)cn2C1CC1 (stereo unspecified),228 to 230
12,Fc1cc(F)c2c(c1)C[C@@H](n1c(CCNCc3ccccc3)c[nH]c1=S)CO2,188 to 190
13,CS(=O)(=O)NC1CCC(NC(=O)Nc2ccc(C(F)(F)F)cc2)CC1 (stereo unspecified),237 to 239
14,Cc1cc2c(C)c(O)c(O)c(C(=O)O)c2cc1Cc1ccccc1,179 to 180
15,O=C(Nc1ccc2nc(CN3CCOCC3)ccc2c1)c1ccc(-c2ccccc2)cc1,214 to 215
16,COc1cc(C(=O)NS(=O)(=O)c2ccccc2C)ccc1Cn1ncc2ccc(NC(=O)CC3CCCC3)cc21,184 to 185
17,COc1ccc(N2CCN(c3c(C)c(C)c4c(c3C)C(O)(c3ccccc3)C(C)(C)O4)CC2)cc1 (stereo unspecified),123 to 125
18,O=[N+]([O-])c1oc2ccc(N3Cc4ccccc4C3)cc2c1-c1ccccc1,228 to 230
19,CN1C(=O)C(F)N=C(c2ccccc2F)c2cc(Cl)ccc21 (stereo unspecified),91 to 95
20,Cc1cc(F)ccc1C(=C(C=CC(O)CC(=O)CC(=O)OC(C)(C)C)c1nnnn1C)c1ccc(F)cc1C (stereo unspecified),65 to 72
21,FC(F)(F)c1ccc2c(Cl)ncc(Br)c2n1,59 to 60
22,COCCOc1nn2c(-c3ccc(OC)cc3)nnc2c2ccccc12,174 to 176
23,COC(=O)c1cc(C(=O)OC)c2c(Cl)cc(Cl)cc2n1,116 to 118
24,CCCc1nn(-c2ccc(C(F)(F)F)cn2)cc1CCCOc1ccc(C(C)(C)C(=O)O)cc1,84 to 85

row,Structure (SMILES),melting point [°C]
1,COc1cc(C2(C#N)CC2)ccc1OCc1ccccc1,84
2,CCn1ncc2c(NCc3cccnc3)c3ccccc3nc21,282 to 284
3,N#Cc1ccc(Oc2ccc(C3CCCN4CCS(=O)(=O)N=C34)cc2)cc1Cl (stereo unspecified),219 to 220
4,CC(C)(C)c1nnc(NC(=O)CC(=O)CBr)s1,128 to 130
5,CNC(=O)CS(=O)(=O)Nc1c(F)cccc1Oc1nc(OC)cc(OC)n1,193 to 198
6,O=C(O)[C@H]1C[C@H](NC(=O)N(c2ccccc2)c2ccccc2)c2c(Cl)cc(Cl)cc2N1 (relative stereo),214 to 216
7,CN1CCN(c2ccc(Nc3ncc4ccc(-c5ccccc5OCC#N)n4n3)cc2)CC1,95 to 101
8,COc1ccc2cc([C@H](C)C(=O)OCC(=O)O)ccc2c1,122 to 123
9,CCOC(=O)C1=C(N)NC(C)=CC1c1cccc(Cl)c1 (stereo unspecified),140
10,C#CCNc1ccc([N+](=O)[O-])cc1C,121 to 123
11,CC(C)Cn1c(CO)c(-c2ccc(F)cc2)c2cc(OCc3ccccc3)ccc2c1=O,143 to 144
12,Nc1ccc2ncnc(Nc3cccc(C(F)(F)F)c3)c2c1,190 to 192
13,CCOC(=O)C1=C(C)NC(C)=C(C(=O)OC)C1c1ccccc1C#N (stereo unspecified),178
14,COc1cc(C)c(N)cc1C,75 to 76
15,CCCCCCCCCCCCSCC(O)CO (stereo unspecified),53 to 54
16,CCCc1cc(Cl)c2oc(C(=O)c3ccccc3)c(C)c2c1OC(=O)c1ccccc1,141 to 142
17,N#Cc1cc(C(=O)NNC(=O)c2occc2-c2ccc(OCc3ccccc3)cc2)ccc1O,208 to 209
18,CCN(Cc1ccc2nc(C)[nH]c(=O)c2c1)C(N)=S,186 to 187
19,Nc1cc(C(=O)Nc2ccccc2)ccc1F,167 to 170
20,COc1ccc2cc(-c3nn(C)c4cc(OC)ccc34)ccc2c1,166 to 168
21,CCOC(=O)c1cn(Cc2ccc(OCc3ccccc3)cc2)nc1-c1ccc(F)cc1,103 to 104
22,CS(=O)(=O)Nc1ccc2ncnc(N)c2c1,287 to 290
23,CNC(=O)Cc1c(F)cccc1F,163 to 164
24,O=C(O)c1cccc(-c2ccc3c(c2)N(c2ccc(Cl)cc2Cl)CCCC3)c1,131 to 132

row,Structure (SMILES),melting point [°C]
1,C#Cc1ccc2c(c1)C(c1ccccn1)=NCc1c(-c3nc(C(C)C)no3)ncn1-2,> 200
2,COc1cc(OC(=O)c2cccnc2)c2c(=O)c(OC)c(-c3ccc(OC(=O)c4cccnc4)c(OC)c3)oc2c1,212 to 214
3,CN(C(=O)C(F)(F)F)c1cnc(-c2cncc(F)c2)s1,168 to 170
4,O=C(O)c1c(Cc2cc3c(cc2Cl)OCO3)c(-c2ccco2)nn1CC1CCCCC1,248
5,CC(C)S(=O)(=O)C(C#N)=CC=CN(C)C,102 to 104
6,CC12CC(NC(=O)OCC(Cl)(Cl)Cl)C3C(CCC4CC(O)CCC43C)C1CCC2C(=O)O (stereo unspecified),212 to 220
7,CC(=O)O[C@H]1CC[C@H]2[C@@H]3CCc4cc(O)ccc4[C@H]3[C@@H](CCCCCCCCCS(=O)(=O)CCCC(F)(F)C(F)(F)F)C[C@]12C,130
8,CC(C)c1nc(COCc2ccccc2)n(Cc2ccccc2)c1Sc1cccc(Cl)c1,120 to 122
9,Cc1cn2cccc(OCc3c(Cl)ccc(S(=O)(=O)N4CCC[C@H]4C(=O)N4CCN(C(=O)c5ccc(C=NN)cc5)CC4)c3Cl)c2n1,159 to 161
10,CCN1CCC2(c3cccc(O)c3)Cc3[nH]c(C(=O)Nc4ccccc4)c(C)c3CC2C1 (stereo unspecified),271 to 272
11,CCc1c(C(C)(C)C)cc(C(C)(C)C)c(O)c1C(=O)Nc1ccc(S(=O)(=O)C(F)(F)F)cc1Cl,157 to 158
12,CC(C)Cn1c(COc2ccccc2)nc2c(N)nc3ccccc3c21,196 to 197
13,"CN(C)CC#CCNC(=O)C(O)(c1ccccc1)C1CCCCC1 (single isomer, unassigned; (-))",120 to 121
14,Fc1ccc(-c2csc(-c3cn([C@H]4CN5CCC4CC5)nn3)c2)cn1,136
15,O=C(O)c1cccc(C(=O)C=Cc2cccc(C=Cc3ccc4ccccc4n3)c2)c1O,237 to 240
16,CCOc1cc2cc(CO)cc(-c3ccnc(Cl)c3)c2cc1OCC,135 to 137
17,CCOC(=O)C1=CC(C(=O)c2cc(Cl)c(C)cc2O)=CN2CCc3c([nH]c4ccccc34)C12C(=O)OCC (stereo unspecified),196
18,COc1ccc(C=CC(=O)c2ccc(OC)cc2O)cc1,108
19,CCCCCCCOCC1OC1CO (stereo unspecified),50 to 52
20,CC(CSC#N)n1nnc2cc3c(=O)n(C4CC4)nnc3cc2c1=O (stereo unspecified),178 to 180
21,CCCCCCCCCCCCc1nnn(C(C(=O)Nc2c(C(C)C)cccc2C(C)C)c2ccccc2)n1 (stereo unspecified),93 to 95
22,C[C@@H](n1cnc2cc(C(F)(F)F)ccc2c1=O)[C@](O)(Cn1cncn1)c1ccc(F)cc1F,142 to 143
23,CC1(C)CCC(C)(C)c2cc(-c3cc(-c4ccc(C(=O)O)cc4)ccc3OCCCCCCCCCO)ccc21,147 to 150
24,O=C(CC(NC(=O)OCc1ccccc1)c1ccccc1)Nc1n[nH]c(=S)s1 (stereo unspecified),222 to 223

row,Structure (SMILES),melting point [°C]
1,O=C(O)c1cccc(CC2COc3cc(O)ccc3C2=O)c1 (stereo unspecified),234 to 236
2,Nc1ccc(OCCCl)cc1,91 to 92
3,Cc1nc2ccc(Cn3ccnc3)cc2nc1Cl,116
4,O=C1C(=O)c2ccccc2C2=C1SCC1(CCN(CC(O)CC(F)(F)F)CC1)O2 (stereo unspecified),145 to 148
5,O=C1N=c2ccc(Cl)cc2=N1,320
6,O=C1OC(c2ccccc2)=NC1=NNc1ccccc1,200 to 203
7,COc1ccc2c(c1)c1c(n2C(=O)c2ccccc2)CCCC1C(=O)O (stereo unspecified),157 to 159
8,COc1ccc(C(=O)N2CCc3cc(OCc4ccccc4)ccc3C2)cc1OC,126 to 127
9,N#Cc1ncn2c1[C@@H]1CCCN1C(=O)c1ccccc1-2,223 to 225
10,CC(C)CCSc1cc(C(=O)O)cc(S(N)(=O)=O)c1-c1ccccc1,70 to 74
11,CN(c1cnc(-c2ccccc2)c(-c2ccccc2)n1)C1CCc2c(OCC(=O)O)cccc21 (stereo unspecified),182 to 184
12,CCOC(=O)c1ccc(-c2ccc(OC)c(Br)c2)cc1,114 to 115
13,CCOC(=O)c1nc2ccc([N+](=O)[O-])cc2c(=O)[nH]1,227 to 228
14,COc1cc2c(c3c1OC(C)(C)C3)C(c1cccc(C(=O)NC(C)(C)C(N)=O)c1)=NC(C)(C)C2,129 to 131
15,CCOC(CC)c1ccc(Cl)c2nc3n(c12)CCCN3c1cnc(N(C)C)cc1C (stereo unspecified),179 to 180
16,CNC1=NN(c2ccc(Cl)c(Cl)c2)CC1,68 to 70
17,CN(C)C=C1C(=O)N(c2cccc(F)c2)c2ccccc21,87 to 88.5
18,O=C1C=CC(OC2CCCC2)N1 (stereo unspecified),81 to 82
19,Cc1cc2c(nc1C(O)c1ccc(C(F)(F)F)cc1)CCCCC2 (stereo unspecified),131 to 133
20,OC(=S)CCC1CCN(Cc2ccc3c(c2)Nc2nccnc2S3)CC1,110 to 113
21,Cc1ccc(C(=O)N2CCN(CC3(C)Cc4c(C)c(N)c(C)c(C)c4O3)CC2)cc1 (stereo unspecified),131 to 133
22,Cc1ccc(C=Cc2csc3ccccc23)s1,62 to 64
23,Cn1nc(-c2c(F)cccc2Cl)nc1-c1ccc(Oc2ccc(C(F)(F)F)cn2)c(Cl)c1,116 to 117
24,CC(C)(O)c1ccc(CNC(=O)c2cccnc2Oc2ccc3nonc3c2)cc1,149 to 151
